Results: patent US9375434B2, “Antitumor effect potentiator composed of imidazooxazine compound” (Taiho Pharmaceutical Co., Ltd., priority 2012, dated 2016)

Key:
[1] = tested on: Human ovarian cancer cell line (A2780); experiment: Potentiation of antitumor effect of carboplatin, A2780 subcutaneous implant (Test Example 3); format: in vivo, nude rats; settings: compound-I 16 mg/kg/day p.o. day 1-14
Experimental: In the figure, the asterisk represents a result having a statistically significant difference compared with the single-drug administration group. FIG. 1 and Table 10 show the results. […] Carboplatin was prepared by diluting a […] injection (Bristol-Myers Squibb, 50 mg/5 mL) two-fold with physiological saline to enable administration at a carboplatin dose of 50 mg/kg/day. Further, the test liquid of Compound-I was prepared by adjusting its dose to 16 mg/kg/day. […] The single-drug administration group was administered 0.5% HPMC or a physiological saline as a vehicle instead of Compound-I or carboplatin. […] FIG. 5 and Table 12 show the results. […] The effect of the combined administration was also statistically determined in the same manner as in Test Example 1. In the figure and the table, the asterisk represents a result having a statistically significant difference compared with the single-drug administration group.

[2] = tested on: Human ovarian cancer cell line (A2780); experiment: Potentiation of antitumor effect of irinotecan, A2780 subcutaneous implant in nude mice (Test Example 5); format: in vivo, BALB/cA Jcl-nu/nu mice; settings: compound-I 16 mg/kg/day p.o. day 1-14
Experimental: As an index of antitumor effect, the TV at Day 15 was measured for each of the drug administration groups, and the relative tumor volume (RTV) relative to Day 1 and T/C (%) were calculated by the following formulas to evaluate the antitumor effect.
TV (mm^3)=(length×width^2)/2 RTV=(TV at Day 15)/(TV at Day 1) T/C(%)=(average RTV value of the test liquid administration group)/(average RTV value of the control group)×100
Human ovarian cancer cell line (A2780) was subcutaneously implanted into the right flank of 7-week-old male BALB/cA Jcl-nu/nu mice, and was used in the same manner as in Test Example 1. […] Further, the test liquid of Compound-I was prepared by adjusting its dose to 16 mg/kg/day.
The effect of the combined administration was also statistically determined in the same manner as in Test Example 1. […] FIG. 9 and Table 14 show the results. Further, the change in the body weight over time was evaluated as an index of toxicity in the same manner as in Test Example 1.

[3] = tested on: Human stomach cancer cell line (NCI-N87); experiment: Potentiation of antitumor effect of everolimus, NCI-N87 subcutaneous implant in nude mice (Test Example 7); format: in vivo, BALB/cA Jcl-nu/nu mice; settings: compound-I 16 mg/kg/day p.o. day 1-14
Experimental: As an index of antitumor effect, the TV at Day 15 was measured for each of the drug administration groups, and the relative tumor volume (RTV) relative to Day 1 and T/C (%) were calculated by the following formulas to evaluate the antitumor effect. […] In the figure, the asterisk represents a result having a statistically significant difference compared with the single-drug administration group.
FIG. 1 and Table 10 show the results. TV (mm^3)=(length×width^2)/2 RTV=(TV at Day 15)/(TV at Day 1) T/C(%)=(average RTV value of the test liquid administration group)/(average RTV value of the control group)×100
Human stomach cancer cell line (NCI-N87) was subcutaneously implanted into the right flank of 7-week-old male BALB/cA Jcl-nu/nu mice, and was used in the same manner as in Test Example 1.
In the group receiving only everolimus (IS Chemical Technology), the test liquid was prepared to enable administration at an everolimus dose of 5 mg/kg/day. A vehicle of 5% ethyl alcohol/5% PEG400/4% Tween 20/86% distilled water was used. In the groups receiving only Compound-I, the test liquid was prepared by diluting Compound-I with 0.5% HPMC to enable administration at a Compound-I dose of 16 mg/kg/day. In the combined administration group, Compound-I was administered at a dose of 16 mg/kg/day, and everolimus was administered at a dose of 5 mg/kg/day. Both Compound-I and everolimus were orally administered once a day for 14 days from Day 1, and the evaluation was performed in the same manner as in Test Example 1. FIG. 13 and Table 16 show the results.
In the figure and the table, the asterisk represents a result having a statistically significant difference compared with the single-drug administration group.

[4] = tested on: Human ovarian cancer A2780 cell line; experiment: Potentiation of antitumor effect of paclitaxel, A2780 subcutaneous implant in nude mice (Test Example 1); format: in vivo, BALB/cA Jcl-nu/nu mice
Experimental: Human ovarian cancer A2780 cell line was subcutaneously implanted into the right flank of 7-week-old male BALB/cA Jcl-nu/nu mice. After the implant, the length (mm) and the width (mm) of the tumor were measured, and the tumor volume (TV) was calculated. Thereafter, the mice were divided into groups so that the average TV is equalized in each group. The day of grouping (n=5) is referred to as Day 0. […] Test liquids for the groups receiving only Compound-I were prepared by diluting Compound-I with 0.5% hydroxypropyl methylcellulose (HPMC) so as to enable administration at a Compound-I dose of 8 mg/kg/day, 16 mg/kg/day, and 24 mg/kg/day. […] In the groups receiving the two drugs, Compound-I was administered at doses of 8 mg/kg/day, 16 mg/kg/day, and 24 mg/kg/day, and paclitaxel was administered at a dose of 60 mg/kg/day. […] In the figure, the asterisk represents a result having a statistically significant difference compared with the single-drug administration group. FIG. 1 and Table 10 show the results.

[5] = tested on: Human ovarian cancer cell line (A2780); experiment: Potentiation of antitumor effect of doxorubicin, A2780 subcutaneous implant in nude mice (Test Example 6); format: in vivo, BALB/cA Jcl-nu/nu mice
Experimental: In the groups receiving only Compound-I, the test liquid was prepared by diluting Compound-I with 0.5% HPMC to enable administration at a Compound-I dose of 16 mg/kg/day. […] The effect of the combined administration was also statistically determined in the same manner as in Test Example 1.

[6] = compound-I 8 mg/kg/day p.o. day 1-14
[7] = compound-I 16 mg/kg/day p.o. day 1-14
[8] = compound-I 24 mg/kg/day p.o. day 1-14

Which results are given for `CC1(O)CC(N)(c2ccc(-c3nc4n(c3-c3ccccc3)COc3ccncc3-4)cc2)C1` (stereo not drawn) [compound-I, trans-3-amino-1-methyl-3-(4-(3-phenyl-5H-imidazo[1,2-c]pyrido[3,4-e][1,3]oxazin-2-yl)phenyl)cyclobutanol]?
RTV day 15 Mean ± SD [1]: 20.86 ± 4.84; T/C (%) [1]: 81%; RTV day 15 Mean ± SD [2]: 19.16 ± 2.60; T/C (%) [2]: 63%; RTV day 15 Mean ± SD [3]: 1.19 ± 0.27; T/C (%) [3]: 43%; RTV day 15 Mean ± SD [4, 6]: 23.66 ± 9.16; T/C (%) [4, 6]: 92%; RTV day 15 Mean ± SD [4, 7]: 19.91 ± 1.41; T/C (%) [4, 7]: 77%; RTV day 15 Mean ± SD [4, 8]: 18.94 ± 5.52; T/C (%) [4, 8]: 74%; T/C (%) ([5]; compound-I 16 mg/kg/day day 1-14): 80%; RTV day 15 Mean ± SD [5, 7]: 22.17 ± 7.20
